Test results from PubChem BioAssay AID328 (DTP/NCI, 2004).
“And” between values parts separate entries of the source, which are not always exact repeats. Equal values may be shown once. Toxic doses and inconclusive results are not listed.

Tested on: BDF1 mice, P388 leukemia ip, median survival T/C
Assay: NCI In Vivo Anticancer Drug Screen. Data for tumor model P388 Leukemia (intraperitoneal) in B6D2F1 (BDF1) mice
Details: endpoint: median survival time, higher = longer survival
How it was run: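 In tumour-bearing mice, survival after compound treatment is set against the vehicle group and given as a quotient.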

[1] = dose: 6.25 mg/kg/injection, schedule: Q01DX009 (ip), vehicle: saline with Tween-80
[2] = dose: 100.0 mg/kg/injection, schedule: Q01DX009 (ip), vehicle: saline with Tween-80
[3] = dose: 100.0 mg/kg/injection, schedule: Q04DX003 (ip), vehicle: saline with Tween-80
[4] = dose: 200.0 mg/kg/injection, schedule: Q01DX009 (ip), vehicle: saline with Tween-80
[5] = dose: 200.0 mg/kg/injection, schedule: Q04DX003 (ip), vehicle: saline with Tween-80
[6] = dose: 400.0 mg/kg/injection, schedule: Q04DX003 (ip), vehicle: saline with Tween-80
[7] = dose: 100.0 mg/kg/injection, schedule: Q04DX003 (ip), vehicle: Klucel (hydroxypropylcellulose) (HPC)
[8] = dose: 200.0 mg/kg/injection, schedule: Q04DX003 (ip), vehicle: Klucel (hydroxypropylcellulose) (HPC)
[9] = dose: 50.0 mg/kg/injection, schedule: Q01DX009 (ip), vehicle: saline with Tween-80

`CS(=O)(=O)OCCN(CCOS(C)(=O)=O)c1cccc(Cl)c1` was tested, and the T/C (dose: 1.0 mg/kg/injection, schedule: Q04DX003 (ip), vehicle: saline with Tween-80) was 100 % of control, the T/C (dose: 2.0 mg/kg/injection, schedule: Q04DX003 (ip), vehicle: saline with Tween-80) was 100 % of control and the T/C (dose: 4.0 mg/kg/injection, schedule: Q04DX003 (ip), vehicle: saline with Tween-80) was 172 % of control. For the same compound, the T/C (dose: 6.25 mg/kg/injection, schedule: Q01DX009 (ip), vehicle: other) was 163 % of control, the T/C (dose: 6.25 mg/kg/injection, schedule: Q04DX003 (ip), vehicle: saline) was 110 % of control and the T/C (dose: 8.0 mg/kg/injection, schedule: Q04DX003 (ip), vehicle: saline with Tween-80) was 177 % of control. The T/C (dose: 12.5 mg/kg/injection, schedule: Q01DX009 (ip), vehicle: Klucel (hydroxypropylcellulose) (HPC)) was 168 % of control, the T/C (dose: 12.5 mg/kg/injection, schedule: Q01DX009 (ip), vehicle: other) was 200 % of control and the T/C (dose: 18.7 mg/kg/injection, schedule: Q01DX009 (ip), vehicle: Klucel (hydroxypropylcellulose) (HPC)) was 186 % of control. For the same compound, the T/C (dose: 22.0 mg/kg/injection, schedule: Q04DX003 (ip), vehicle: other) was 240 % of control, the T/C (dose: 25.0 mg/kg/injection, schedule: Q01DX009 (ip), vehicle: other) was 95 % of control and the T/C (dose: 50.0 mg/kg/injection, schedule: Q04DX003 (ip), vehicle: other) was 90 % of control. The T/C (dose: 75.0 mg/kg/injection, schedule: Q04DX003 (ip), vehicle: other) was 90 % of control.

In the case of `COc1cc2cc(c1Cl)N(C)C(=O)CC(O)C1(C)OC1C(C)C1CC(O)(NC(=O)O1)C(OC)C=C/C=C(\C)C2` (stereo not drawn), the T/C (dose: 1.8 micrograms/kg/injection, schedule: Q01DX009 (ip), vehicle: saline + alcohol) is reported as 102 % of control, the T/C (dose: 3.1 micrograms/kg/injection, schedule: Q01DX009 (ip), vehicle: saline + alcohol) is reported as 102 % of control and 115 % of control and the T/C (dose: 6.2 micrograms/kg/injection, schedule: Q01DX009 (ip), vehicle: saline + alcohol) is reported as 102 % of control and 108 % of control. The T/C (dose: 12.5 micrograms/kg/injection, schedule: Q01DX009 (ip), vehicle: saline + alcohol) was 102 % of control and 108 % of control, the T/C (dose: 25.0 micrograms/kg/injection, schedule: Q01DX009 (ip), vehicle: saline + alcohol) was 94 % of control and 113 % of control and the T/C (dose: 50.0 micrograms/kg/injection, schedule: Q01DX009 (ip), vehicle: saline + alcohol) was 94 % of control and 112 % of control. The T/C (dose: 100.0 micrograms/kg/injection, schedule: Q01DX009 (ip), vehicle: saline + alcohol) was 94 % of control and 105 % of control, the T/C (dose: 200.0 micrograms/kg/injection, schedule: Q01DX009 (ip), vehicle: saline + alcohol) was 108 % of control and 112 % of control and the T/C (dose: 400.0 micrograms/kg/injection, schedule: Q01DX009 (ip), vehicle: saline + alcohol) was 102 % of control.

With `CCN(CC)CCNc1ccc(COC(=O)NC)c2sc3ccccc3c(=O)c12` the T/C [1] was 166 % of control.

In the case of `CC(C)=CC(=O)OCC1CC[N+](C)(C)C1` (stereo not drawn), the T/C (dose: 25.0 mg/kg/injection, schedule: Q01DX009 (ip), vehicle: saline) is reported as 111 % of control and the T/C (dose: 50.0 mg/kg/injection, schedule: Q01DX009 (ip), vehicle: saline) is reported as 100 % of control.

With `OC1CCC2(CC1)Cc1ccccc1C2O` (stereo not drawn) the T/C (dose: 100.0 mg/kg/injection, schedule: Q01DX001 (ip), vehicle: saline with Tween-80) was 114 % of control, the T/C (dose: 200.0 mg/kg/injection, schedule: Q01DX001 (ip), vehicle: saline with Tween-80) was 119 % of control and the T/C (dose: 400.0 mg/kg/injection, schedule: Q01DX001 (ip), vehicle: saline with Tween-80) was 119 % of control.

`CC(=O)N(CC1CNc2nc(N)[nH]c(=O)c2N1C(=O)CCCCCCC(=O)N1c2c(nc(N)[nH]c2=O)NCC1CN(C(C)=O)c1ccc(C(=O)NC(CCC(=O)O)C(=O)O)cc1)c1ccc(C(=O)NC(CCC(=O)O)C(=O)O)cc1` (stereo not drawn) was tested, and the T/C (dose: 50.0 mg/kg/injection, schedule: Q04DX003 (ip), vehicle: sodium bicarbonate) was 103 % of control, the T/C (dose: 100.0 mg/kg/injection, schedule: Q04DX003 (ip), vehicle: sodium bicarbonate) was 91 % of control and the T/C (dose: 200.0 mg/kg/injection, schedule: Q04DX003 (ip), vehicle: sodium bicarbonate) was 112 % of control.

`O=NN(CCBr)C(=O)NC1CCCCC1` was tested, and the T/C (dose: 1.5 mg/kg/injection, schedule: Q01DX009 (ip), vehicle: saline with Tween-80) was 109 % of control, the T/C (dose: 3.0 mg/kg/injection, schedule: Q01DX009 (ip), vehicle: saline with Tween-80) was 109 % of control and the T/C (dose: 6.0 mg/kg/injection, schedule: Q01DX009 (ip), vehicle: saline with Tween-80) was 113 % of control. For the same compound, the T/C (dose: 100.0 mg/kg/injection, schedule: Q01DX009 (ip), vehicle: gum acacia) was 103 % of control, the T/C [2] was 122 % of control and the T/C (dose: 100.0 mg/kg/injection, schedule: Q04DX003 (ip), vehicle: gum acacia) was 113 % of control. The T/C [3] was 109 % of control, the T/C (dose: 133.0 mg/kg/injection, schedule: Q01DX009 (ip), vehicle: gum acacia) was 115 % of control and the T/C (dose: 150.0 mg/kg/injection, schedule: Q01DX009 (ip), vehicle: saline with Tween-80) was 95 % of control. The T/C [4] was 118 % of control and 122 % of control, the T/C (dose: 200.0 mg/kg/injection, schedule: Q04DX003 (ip), vehicle: gum acacia) was 104 % of control and the T/C [5] was 109 % of control. For the same compound, the T/C (dose: 300.0 mg/kg/injection, schedule: Q01DX009 (ip), vehicle: gum acacia) was 100 % of control, the T/C (dose: 400.0 mg/kg/injection, schedule: Q01DX009 (ip), vehicle: gum acacia) was 103 % of control and the T/C (dose: 400.0 mg/kg/injection, schedule: Q04DX003 (ip), vehicle: gum acacia) was 91 % of control.

With `CC(C)Cc1c[nH]c(=O)[nH]c1=O` the T/C [3] was 90 % of control, the T/C [5] was 90 % of control and the T/C [6] was 90 % of control.

In the case of `COc1cc(C)c(Cl)c(C)c1C(C)=O`, the T/C (dose: 50.0 mg/kg/injection, schedule: Q04DX003 (ip), vehicle: Klucel (hydroxypropylcellulose) (HPC)) is reported as 104 % of control, the T/C [7] is reported as 95 % of control and the T/C [8] is reported as 86 % of control.

With `O=C(C=C(C(F)(F)F)C(F)(F)F)c1cccc(Cl)c1` the T/C [1] was 122 % of control and the T/C (dose: 12.5 mg/kg/injection, schedule: Q01DX009 (ip), vehicle: saline with Tween-80) was 100 % of control.

`COc1ccc(NC(=O)Oc2ccccc2Cc2ccccc2)cc1` was tested, and the T/C [7] was 100 % of control and the T/C [8] was 95 % of control.

For `NNCCC(=O)O`, the T/C (dose: 100.0 mg/kg/injection, schedule: Q04DX003 (ip), vehicle: saline) was 91 % of control, the T/C (dose: 200.0 mg/kg/injection, schedule: Q04DX003 (ip), vehicle: saline) was 112 % of control and the T/C (dose: 264.0 mg/kg/injection, schedule: Q04DX003 (ip), vehicle: saline) was 113 % of control. The T/C (dose: 400.0 mg/kg/injection, schedule: Q04DX003 (ip), vehicle: saline) was 118 % of control and 123 % of control.

`O=[N+]([O-])c1cccc(N2CN(c3cccc([N+](=O)[O-])c3)CN(c3cccc([N+](=O)[O-])c3)C2)c1` was tested, and the T/C [9] was 116 % of control, the T/C [2] was 106 % of control and the T/C [4] was 100 % of control.

`c1ccc2sc(SSN3CC4CCC(CC4)C3)nc2c1` was tested, and the T/C [9] was 102 % of control and 122 % of control.

For `OCCC1(CCO)CCCCC1`, the T/C (dose: 10.0 mg/kg/injection, schedule: Q01DX009 (ip), vehicle: saline with Tween-80) was 100 % of control, the T/C (dose: 20.0 mg/kg/injection, schedule: Q01DX009 (ip), vehicle: saline with Tween-80) was 105 % of control and the T/C (dose: 40.0 mg/kg/injection, schedule: Q01DX009 (ip), vehicle: saline with Tween-80) was 110 % of control. For the same compound, the T/C (dose: 50.0 mg/kg/injection, schedule: Q04DX003 (ip), vehicle: saline with Tween-80) was 109 % of control and the T/C [3] was 100 % of control.

In the case of `O=[N+]([O-])c1ccc(N2CCN(Cc3ccccc3)CC2)c2c1no[n+]2[O-]`, the T/C (dose: 75.0 mg/kg/injection, schedule: Q04DX003 (ip), vehicle: saline with Tween-80) is reported as 101 % of control and the T/C (dose: 300.0 mg/kg/injection, schedule: Q04DX003 (ip), vehicle: saline with Tween-80) is reported as 121 % of control.

With `N#CC(/C=C/c1ccccc1)Nc1ccccc1` (stereo not drawn) the T/C [3] was 104 % of control, the T/C [5] was 100 % of control and the T/C [6] was 100 % of control.

With `O=C1SCCC1CO` (stereo not drawn) the T/C [3] was 114 % of control.

With `COC1C(OC(=O)c2ccc(C)[nH]2)C(O)C(Oc2ccc3c(O)c(NC(=O)c4ccc(O)c(CC=C(C)C)c4)c(=O)oc3c2Cl)OC1(C)C` (stereo not drawn) the T/C (dose: 50.0 mg/kg/injection, schedule: Q01DX009 (ip), vehicle: other) was 106 % of control, the T/C (dose: 100.0 mg/kg/injection, schedule: Q01DX009 (ip), vehicle: other) was 104 % of control and the T/C (dose: 200.0 mg/kg/injection, schedule: Q01DX009 (ip), vehicle: other) was 115 % of control.
